We go through three compounds from US20230310496A1, “COMPOSITIONS AND METHODS FOR PREVENTING AND/OR AM[…]-[…] AUTOIMMUNE DISEASES” (MiZ Company Limited, priority 2022, published 2023).

Series [1] relates to myasthenia gravis. As to the kind of experiment: Course of myasthenia gravis under drugs before inhalation of hydrogen gas (Example 1). The conditions noted are these: Tacrolimus 3 mg/day, Mestinon 60 mg × 3/day. In kind it is in vivo, human. Here is the method: The course from onset is as follows:
Aug. 26, 2021: upper lip paralysis occurred. […] Since the patient was positive on an ice pack test and a Tensilon test, they were diagnosed as myasthenia gravis. No abnormality was found in a CT test. As a result of a blood test, the patient was false positive to an anti-acetylcholine antibody and prescribed an immunosuppressant (Tacrolimus 3 mg/day). […] The patient could not read letters on a newspaper, raise a frying pan or write letters, and their chewing power reduced.
Sep. 9, 2021: the patient consulted the doctor because of worsening of symptoms and prescribed an anticholinesterase agent (Mestinon 60 mg × 3/day). […] Every day after 3 p.m. or later, the patient felt that their arms are unbearably heavy. Since the arms cannot be removed, the patient spent time with the arms kept on a table.
Sep. 25, 2021: since symptoms were not improved and merely got worse, the patient changed their primary doctor to a neuroimmunology specialist doctor and hospitalization was considered.
Sep. 29, 2021: an immunosuppressant (1 mg) was additionally prescribed by the neuroimmunology specialist doctor; that is, immunosuppressants (Tacrolimus 3 mg/day, Prograf 1 mg/day) were prescribed. The patient avoided hospitalization but was followed up as an outpatient. […] Based on the result, the patient was definitively diagnosed as anti-MuSK antibody positive myasthenia gravis. […]

For series [2] the following is noted: human, in vivo.
Series [3] has as its system anti-MuSK antibody positive myasthenia gravis. As to conditions: for relapse after use of the immunosuppressants was stopped: only hydrogen gas inhalation continued since Mar. 30, 2022, supplemental hydrogen water. Here is the method: Patient: person at the time of onset. The course from onset is as follows:
Jan. […] (Kamakura city, Kanagawa prefecture, Japan).
Aug. 24, 2022: medical examination was carried out at the Department of Neurology in the Juntendo University Hospital.

Series [4] relates to Hashimoto's disease. The conditions noted are these: MHG-2000α, hydrogen about 5% to 7%.

Where two headings read alike, the source gives them in different places.

With `C=CC[C@@H]1/C=C(\C)C[C@H](C)C[C@H](OC)[C@H]2O[C@@](O)(C(=O)C(=O)N3CCCC[C@H]3C(=O)O[C@H](/C(C)=C/[C@@H]3CC[C@@H](O)[C@H](OC)C3)[C@H](C)[C@@H](O)CC1=O)[C@H](C)C[C@@H]2OC` [Tacrolimus], the “symptoms of myasthenia gravis under the drug” value in series [1] was “the symptoms progressed”.

As to `CN(C)C(=O)Oc1ccc[n+](C)c1` [Mestinon], the “symptoms of myasthenia gravis under the drug” value in series [1] is recorded as “their symptoms further got worse”.

For the compound `[HH]` [hydrogen gas, hydrogen], the “side effects of hydrogen itself” value in series [2] is recorded as “not found”. The “languor of the arm” value in series [3] (Day 5 after initiation of inhalation, Jobs-α, hydrogen about 4% to 5%, Jan. 28, 2022) was “completely gone”. For the same compound, the “constipation, a side effect of the immunosuppressants” value in series [3] (Feb. 1, 2022, inhalation started Jan. 23, 2022) is “overcome”. The “blemishes on their face” value in series [3] (Feb. 16, 2022) is listed as “became light”. Besides, the “symptoms of myasthenia gravis” value in series [3] (Mar. 20, 2022) is recorded as “no longer observed”. In addition, in series [3] (Mar. 22, 2022), the “body feeling when inhaling hydrogen gas” value is “the body gets lighter”. For the same compound, the “state of myasthenia gravis as told by the doctor” value in series [3] (Oct. 19, 2022) was “not in remission but in healed state”. In addition, in series [3] (after inhalation of hydrogen, Feb. 1, 2022), the “face turning red after drinking alcohol (side effect of the drugs)” value was “their face never turned red”. For the same compound, the “number of red blood cells” value in series [3] (blood test Mar. 9, 2022, under hydrogen inhalation, normal 3.8 to 5.04) is on record as 4.22 10^12/L. The compound further displayed a hematocrit in series [3] (blood test Mar. 9, 2022, under hydrogen inhalation, normal 35.6 to 45.4) of 40.7%. The anti-MuSK antibody result in series [3] (medical examination Aug. 24, 2022) is “negative”. Also, the “relapse after use of the immunosuppressants was stopped” value in series [3] is “no relapse occurred”; in series [3] (listed as hydrogen) it was “no relapse has taken place”. Also, the fatigue entry in series [4] is “felt less fatigued”. In addition, the “visual field (dark visual field)” value in series [4] was “recovered from darkness and became bright”.
